Data as given in article PMC3316526, “Modulation of γ-Secretase Activity by Multiple Enzyme-Substrate Interactions: Implications in Pathogenesis of Alzheimer's Disease” (PLoS ONE, 2012).
One block for each compound: values may come before it.

Legend:
[1] = tested on: γ-secretase carrying presenilin 1 FAD mutation ΔE9; assay: Inhibition of total AICD production, CHAPSO enriched γ-secretase membranes, FAD mutant ΔE9; format: biochemical, human; details: for Hill's coef. / IC50: ΔE9 presenilin 1, best fit ± standard error, eqn. 3; for IC50: total AICD production, western blot; for decrease in inhibition potency relative to the WT: ΔE9 vs WT presenilin 1
Procedure: (§1) Figure 9 Inhibition of WT presenilin 1 and FAD mutants by DAPT and L-685,458. CHAPSO enriched γ-secretase membranes carrying WT presenilin 1 or FAD mutations ΔE9 and G384A have been prepared and analyzed in parallel with all conditions identical. The dose response curves for DAPT [71] and L-685,458 [15] were measured by following total AICD production using western-blots with αM2 antiflag antibody as shown in Fig. 3. The results were analyzed using nonlinear regression and the equation 3 (methods).
(§2) MEF cells, or MEF double knockout for endogenous presenilin transduced with human WT, dE9 and G384A presenilin 1 [85], were grown to confluence, scraped, and collected in pellets by centrifugation at 1000×g for 5 min. The cell pellets were re-suspended in 20 mM Pipes pH = 7.0, 140 mM KCl, 0.25 M sucrose, 5 mM EGTA, plus 1X Roche protease inhibitors cocktail, so that the total protein concentration was 10 mg/ml. Re-suspended cells were subjected to more than 20 passages in 8.010 mm cell-cracker. The resulting cell extract was subjected to 10 min centrifugation on 2000×g to remove large debris, and the fragmented membranes were collected as pellets after centrifugation for 1 hour at 100 000×g, and stored at −80°C.
(§3) γ-Secretase assays using CHAPSO enriched membranes were performed essentially as earlier described, [37], [48], [89]. Briefly, microsomal fractions (protein concentration 10 mg/ml) from different MEF cells were solubilized in 1% CHAPSO buffer (50 mM Pipes, pH 7.0, 0.25 M sucrose, 1 mM EGTA, 1×Complete protease inhibitor mixture (Roche)) and incubated on ice for 1 h. CHAPSO was always prepared as 1% w/v fresh from a powder stock that was less than 6 months old and kept at 4°C (freshness is crucial for high activity). Next, the membrane-solubilized protein fractions were obtained as supernatant by ultracentrifugation for 1 hour at 100,000×g. The prepared CHAPSO enriched membranes were diluted two fold with 50 mM Pipes pH = 7.0, 0.25 M sucrose, 1 mM EGTA, 0.1% phosphatidylcholine, and 0.0125% phosphatidylethanolamine, plus 1×Complete protease inhibitor mixture (Roche), and left on 37°C for two to three hours. This incubation can increase the measured activity by up to 70% since it can accommodate slow reassembly of γ-secretase components that is induced by the transition from 1% CHAPSO to 0.25% CHAPSO [90]. The reactions were started by adding C99 substrate in desired concentration, the added volume was adjusted so that: i) the final CHAPSO concentration was 0.25%; ii) and final concentration of membrane proteins was 0.25 mg/ml. Fresh C99 substrate that is used immediately after purification gives the best opportunity to observe described enzymatic features and the highest activity. The assay mix was prepared in low adhesion microcentrifuge tubes, the volume was usually 25 µL. To increase sensitivity in early data points detection, and at low enzyme saturation, the assay volume was increased up to 400 µL, and the resulting reaction products were concentrated by immunoprecipitation before the gels were loaded. The reaction mix was incubated at 37°C, the time was optimized for each experiment. The AICD production remains linear for 6 hours at saturating substrate. The reaction specificity was confirmed by running identical parallel reactions that have been saturated with inhibitors specific for γ-secretase; 10 µM LY-411,575 and 10 µM DAPT [3], [4].
(§4) AICD assays using western-blots with anti-flag αM2 monoclonal antibody, or 125-I labelled C99 autoradiography were performed as earlier described, [37]. To keep the C99 bands visible on gels in difference to the previous studies the reaction aliquots were not subjected to methanol /chloroform extraction. Briefly, the samples were separated on Nu-PAGE 12% Bis/Tris/MES/SDS-page gels (Invitrogen) at 150 V for 55 min. For 125-I-C99 assays the gels were dried and exposed for 1–2 hours to europium intensifying screens for autoradiography. […]

[2] = target: T1, γ-secretase carrying presenilin 1 FAD mutation G384A (Homo sapiens, UniProt P49768, G384A); assay: Inhibition of total AICD production, CHAPSO enriched γ-secretase membranes, FAD mutant G384A; format: biochemical; details: for decrease in inhibition potency relative to the WT: G384A vs WT presenilin 1
T1 construct: expressed in transfected cells; host or cells: MEF double knockout for endogenous presenilin, transduced; CHAPSO-solubilised microsomal membranes
Procedure: as §1, §2
as §3, with “[4]. […]” for “[4].”

[3] = target: T2, γ-secretase carrying WT presenilin 1 (Homo sapiens, UniProt P49768); assay: Inhibition of total AICD production, CHAPSO enriched γ-secretase membranes, WT presenilin 1; format: biochemical; details: best fit ± standard error, eqn. 3; for IC50: total AICD production, western blot
T2 construct: expressed in transfected cells; host or cells: MEF double knockout for endogenous presenilin, transduced; CHAPSO-solubilised microsomal membranes
Procedure: as §1, §2
as §3, with “The assay mix was prepared in low adhesion microcentrifuge tubes, the volume was usually 25 µL. To increase sensitivity in early data points detection, and at low enzyme saturation, the assay volume was increased up to 400 µL, and the resulting reaction products were concentrated by immunoprecipitation before the gels were loaded. The reaction mix was incubated at 37°C, the time was optimized for each experiment. The AICD production remains linear for 6 hours at saturating substrate. The reaction specificity was confirmed by running identical parallel reactions that have been saturated with inhibitors specific for γ-secretase; 10 µM LY-411,575 and 10 µM DAPT [3], [4].” left out

[4] = tested on: γ-secretase; assay: Michaelis-Menten profiles for AICD, Aβ 1–40 and Aβ 1–42 in presence of DAPT; format: biochemical; details: enzyme approaching saturation with C99 substrate; DAPT 70-200 nM
Procedure: Figure 3 Michaelis-Menten profiles for AICD, Aβ 1–40 and Aβ 1–42 in presence of DAPT. CHAPSO enriched γ-secretase membranes were used to measure Michaelis-Menten profiles for total AICD production in presence of 0 nM (•), 70 nM (+) and 150 nM (O) of DAPT. Michaelis-Menten profiles for Aβ 1–40 and Aβ 1–42 production were measured in presence of 0 nM (•), 100 nM (+) and 200 nM (O) of DAPT. All profiles have been analyzed using nonlinear regression and the eqn. 4 (methods). The gel strips show different concentrations of the C99 substrate and the corresponding AICD products. […] AICD was measured using antiflag M2 antibodies (as shown in the gel strip). Aβ 1–40, and Aβ 1–42 were measured using AlphaScreen® as described in methods section.
γ-Secretase assays using CHAPSO enriched membranes were performed essentially as earlier described, [37], [48], [89]. […] This incubation can increase the measured activity by up to 70% since it can accommodate slow reassembly of γ-secretase components that is induced by the transition from 1% CHAPSO to 0.25% CHAPSO [90]. […]
AICD assays using western-blots with anti-flag αM2 monoclonal antibody, or 125-I labelled C99 autoradiography were performed as earlier described, [37]. […] Following the washes with TBS +0.1% Tween 20, the membranes were subjected to 25 nM GAMIR (MolecularProbes), washed, and read using fluorescence at […]. […]

[5] = target: γ-secretase; details: quoted without reference; read-out: IC50 in cell-based assays; cited from earlier work
[6] = tested on: γ-secretase; assay: Titration of γ-secretase activity in CHAPSO enriched membranes with LY-411,575; format: biochemical; details: total protein 0.25 mg/ml and 0.09 mg/ml
Procedure: γ-Secretase assays using CHAPSO enriched membranes were performed essentially as earlier described, [37], [48], [89]. Briefly, microsomal fractions (protein concentration 10 mg/ml) from different MEF cells were solubilized in 1% CHAPSO buffer (50 mM Pipes, pH 7.0, 0.25 M sucrose, 1 mM EGTA, 1×Complete protease inhibitor mixture (Roche)) and incubated on ice for 1 h. CHAPSO was always prepared as 1% w/v fresh from a powder stock that was less than 6 months old and kept at 4°C (freshness is crucial for high activity). Next, the membrane-solubilized protein fractions were obtained as supernatant by ultracentrifugation for 1 hour at 100,000×g. The prepared CHAPSO enriched membranes were diluted two fold with 50 mM Pipes pH = 7.0, 0.25 M sucrose, 1 mM EGTA, 0.1% phosphatidylcholine, and 0.0125% phosphatidylethanolamine, plus 1×Complete protease inhibitor mixture (Roche), and left on 37°C for two to three hours. This incubation can increase the measured activity by up to 70% since it can accommodate slow reassembly of γ-secretase components that is induced by the transition from 1% CHAPSO to 0.25% CHAPSO [90]. The reactions were started by adding C99 substrate in desired concentration, the added volume was adjusted so that: i) the final CHAPSO concentration was 0.25%; ii) and final concentration of membrane proteins was 0.25 mg/ml. […]

[7] = tested on: patients; design: method as in PMID 21222550; details: Phase III clinical trials; cited from earlier work
[8] = target: APP C99-3×FLAG (human); assay: AlphaScreen or HTRF; increasing fresh C99 incubated 3 h with 10 nM 3D6 antibody coupled to both donor and acceptor beads; signal only if C99 dimerization/oligomerization brings two epitopes together; apparent Kd from a quadratic equation specific for dimerization (dimer to monomers)
[9] = target: γ-secretase (CHAPSO enriched γ-secretase membranes) (not stated (endogenous mouse in MEF, or human presenilin 1 transduced) | mouse (endogenous in MEF)) (UniProt P49768)
[10] = tested on: γ-secretase; assay: γ-Secretase reaction premixed with synthetic Aβ peptides (AICD production, urea gels of Aβ products); format: biochemical; details: for effect on the rate of AICD production: extremely high concentrations of synthetic peptide, half-saturating C99 (0.45 µM); for effect on relative difference between Aβ 1–40, Aβ 1–42 and the longer Aβ products: reaction premixed with 10 nM synthetic peptide, urea gels, [C99] = 0.45 µM, 4 hours
Procedure: Figure 7 γ-Secretase is not affected by Aβ peptides present in free solution. (A) The lanes labeled as “free reaction” represent Aβ products after 4 hours of routine γ-secretase reaction at half saturating C99 substrate ([C99] = 0.45 µM). The lanes labeled as “+10 nM Aβ 1–42” and “+10 nM Aβ 1–40” represent “free reaction” premixed with synthetic Aβ 1–42 or Aβ 1–40 in a concentration equivalent that corresponds to 4 hours of free reaction. The lanes labeled “+21F12” and “+2G6” represent “free reaction” that was premixed with antibodies specific for Aβ42 or Aβ40 respectively. Both 2G6 and 21F12 antibodies bind the matching Aβ peptides very efficiently as indicated by a complete removal of the corresponding Aβ bands in the reactions with protein G beads (samples labeled as “21F12 and prot. G” and “2G6 and prot. G”). The lane “Aβ std 1-x” represents synthetic peptides as mobility standards. (B) AICD production was measured at half-saturating C99 substrate (0.45 µM) in assays that were premixed with increasing concentrations of synthetic Aβ 1–38, Aβ 1–40, Aβ 1–42, or Aβ 1–44.
as §3, §4

[11] = target: γ-secretase (CHAPSO enriched γ-secretase membranes) (not stated (endogenous mouse in MEF, or human presenilin 1 transduced) | mouse (endogenous in MEF)) (UniProt P49768); remark: listed apart in the source
[12] = G384A presenilin 1, best fit ± standard error, eqn. 3

Compound: C[C@H](NC(=O)Cc1cc(F)cc(F)c1)C(=O)N[C@H](C(=O)OC(C)(C)C)c1ccccc1 [DAPT, N-[N-(3,5-difluorophenacetyl)-L-alanyl]-S-phenylglycine t-butyl ester]
Hill's coef. [1]: 1.21±0.07 | IC50 [1]: 734 ± 254 nM | decrease in inhibition potency relative to the WT [1]: approximately twofold | Hill's coef. [2, 12]: 0.54±0.25 | decrease in inhibition potency relative to the WT [2]: about 1000 fold | Hill's coef. [3]: 0.7±0.2 | IC50 [3]: 390 ± 179 nM | mode of inhibition versus C99 substrate [4]: noncompetitive inhibitor

Compound: C[C@H](NC(=O)[C@@H](O)c1cc(F)cc(F)c1)C(=O)N[C@@H]1C(=O)N(C)c2ccccc2-c2ccccc21 [LY-411,575]
IC50 [5]: ~0.1 nM | concentration that completely abolishes γ-secretase activity [6]: 1 to 2 nM

Compound: CC(C)[C@H](O)C(=O)N[C@@H](C)C(=O)N[C@@H]1C(=O)N(C)CCc2ccccc21 [semagacestat]
effect on cognitive decline in patients [7]: can accelerate the cognitive decline

Compound: APP C99-3×FLAG (domain or fragment)
Kd [8]: 33 nM | Y-axis intercept of the pre-steady-state burst in AICD production (3.0 µM C99, CHAPSO enriched γ-secretase membranes 0.25 mg/ml) [9]: 8.2 nM

Compound: Aβ 1–42: synthetic Aβ 1-x standard prepared by solid phase synthesis
effect on the rate of AICD production [10]: do not affect | effect on relative difference between Aβ 1–40, Aβ 1–42 and the longer Aβ products [10]: does not affect

Continued, values first:

Hill's coef. [1]: 0.98± 0.08 | IC50 [1]: 707 ± 80 nM | decrease in inhibition potency relative to the WT [1]: 10–20 fold | Hill's coef. [2, 12]: 1±0.13 | IC50 ([2]; G384A presenilin 1, total AICD production, western blot, best fit ± standard error, eqn. 3): 398 ± 51 nM | decrease in inhibition potency relative to the WT [2]: 10–20 fold | Hill's coef. [3]: 1.3±0.1 | IC50 [3]: 32 ± 4 nM
Compound: CC(C)C[C@H](NC(=O)[C@H](Cc1ccccc1)C[C@@H](O)[C@H](Cc1ccccc1)NC(=O)OC(C)(C)C)C(=O)N[C@@H](Cc1ccccc1)C(N)=O [L-685,458, {1S-benzyl-4R-[1S-carbamoyl-2-phenylethylcarbamoyl-1S-3-methylbutylcarbamoyl]-2R-hydroxy-5-phenylpentyl} carbamic acid tert-butyl ester]

effect on the rate of AICD production [10]: do not affect
Compound: Aβ 1–38: synthetic Aβ 1-x standard prepared by solid phase synthesis

effect on the rate of AICD production [10]: do not affect | effect on relative difference between Aβ 1–40, Aβ 1–42 and the longer Aβ products [10]: does not affect
Compound: Aβ 1–40: synthetic Aβ 1-x standard prepared by solid phase synthesis

effect on the rate of AICD production [10]: do not affect
Compound: Aβ 1–44: synthetic Aβ 1-x standard prepared by solid phase synthesis

AICD production from 125-I labeled C99 at half-saturating C99 (0.44-0.45 µM) with increasing NotchΔE substrate: activation, then inhibition only at higher NotchΔE concentrations [11]: 85%
Compound: NotchΔE substrate (NotchΔE-3xFLAG) (domain or fragment)
